Test results reported in article PMC8512853, “Synthesis, Bioactivity, Pharmacokinetic and Biomimetic Properties of Multi-Substituted Coumarin Derivatives” (Molecules, 2021).

Test system: HaCaT cells
Experiment: MTT cell viability assay, HaCaT
Format: cell-based, human
Conditions: 100 μM
Summary of the method: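 HaCaT cells seeded, grown 24 h (37 °C, 5% CO2), then exposed 24 h to each compound at 100 μM in DMEM; MTT added for 4 h, formazan dissolved in DMSO, OD read at 540 nm (reference 720 nm). Triplicates versus untreated cells, no-cell blank and 100 μM silibinin as cell-killing standard.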

Row | SMILES | cytotoxicity in HaCaT
1 | Cc1c(-c2ccc(O)cc2)c(=O)oc2ccc(Cl)cc12 [Compound 4j, 6-chloro-3-(4-hydroxyphenyl)-4-methyl-chromen-2-one] | 73%
2 | Cc1c(-c2ccc(Cl)cc2)c(=O)oc2cccc(O)c12 [Compound 4c, 3-(4-chlorophenyl)-5-hydroxy-4-methyl-chromen-2-one] | 63.7%
